In US6919424B2, “Binding peptides for carcinoembryonic antigen (CEA)” (Dyax Corp., priority 2000, dated 2005):

Key:
NA3 = target: T1, NA3 (Homo sapiens, UniProt P06731); test: Phage ELISA with varying amounts of NA3 per well (FIGS. 2, 4, 5); assay type: binding; conditions: FIG. 2; 100, 50, 10, 5, 1, 0 ng per well
T1 construct: H6NA3, consisting of a hexahistidine leader and the N and A3 domains of CEA, was used
T1 sequence (P06731 35-144 limits assumed): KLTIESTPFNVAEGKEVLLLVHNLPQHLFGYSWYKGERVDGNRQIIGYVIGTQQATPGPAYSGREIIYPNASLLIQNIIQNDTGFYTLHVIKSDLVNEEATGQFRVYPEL
T1 sequence (P06731 501-588 limits assumed): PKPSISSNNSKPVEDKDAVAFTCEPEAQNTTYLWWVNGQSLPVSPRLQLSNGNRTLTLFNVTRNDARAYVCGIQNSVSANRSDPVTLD
Method: The first bar for each sample represents wells each having 100 ng CEA. Successive bars represent 50 ng, 10 ng, 5 ng, 1 ng, and 0 ng CEA per well.
The first bar for each sample represents wells each having 30 ng NA3. Successive bars represent 10 ng, 3 ng, and 0 ng NA3 per well.
Several Isolates gave especially strong ELISA signals and these were tested further.
Several Isolates gave especially strong ELISA signals and these were tested further. […] Isolate 304A-12-H12 (designated DX306) was assayed in parallel as a basis for comparison.

CEA [1] = target: T2, CEA (Homo sapiens, UniProt P06731); test: Fluorescence anisotropy direct binding to CEA; conditions: compared with binding to NA3
T2 construct: purchased
T2 sequence (P06731 35-676): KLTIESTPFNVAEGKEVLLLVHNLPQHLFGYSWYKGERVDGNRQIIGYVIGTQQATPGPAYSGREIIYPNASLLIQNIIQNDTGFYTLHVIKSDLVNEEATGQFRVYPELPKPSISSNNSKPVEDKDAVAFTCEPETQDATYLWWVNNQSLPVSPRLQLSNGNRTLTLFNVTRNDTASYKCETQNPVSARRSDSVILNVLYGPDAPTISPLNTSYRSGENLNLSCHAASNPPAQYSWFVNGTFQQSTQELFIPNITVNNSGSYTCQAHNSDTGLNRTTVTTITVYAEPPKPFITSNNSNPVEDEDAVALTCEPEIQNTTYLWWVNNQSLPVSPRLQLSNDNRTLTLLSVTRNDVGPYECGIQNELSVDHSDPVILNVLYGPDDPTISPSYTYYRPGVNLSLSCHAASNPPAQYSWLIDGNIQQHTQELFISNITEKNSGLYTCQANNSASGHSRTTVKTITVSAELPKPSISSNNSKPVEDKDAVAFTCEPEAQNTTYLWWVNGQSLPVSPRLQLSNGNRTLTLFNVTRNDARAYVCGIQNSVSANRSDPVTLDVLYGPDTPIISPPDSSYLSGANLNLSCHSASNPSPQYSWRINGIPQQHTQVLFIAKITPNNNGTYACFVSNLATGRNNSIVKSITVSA
Method: Dissociation constants were determined using fluorescence anisotropy, through direct binding measurements to either NA-3 or CEA in PBS with 0.01% TWEEN 20. In direct binding assays, the concentration of the fluorescein-labeled peptide is held constant and the concentration of NA3 is varied. In the competition experiment, the concentration of the fluorescein-labeled peptide and the NA3 target are held constant and the concentration of competitor peptide (from Isolate 12-H12) is varied. The change in anisotropy is fit to the appropriate equation via nonlinear regression to obtain the apparent Kd. Isolate 304A-12-H12, previously isolated from Lib2 and assayed for binding, was analyzed in parallel as a control. Replicate analyses were run for certain binders and are reported to confirm accuracy and precision of measurements. KD standard error values are calculated from the nonlinear regression (SIGMAPLOT, SPSS Science, Chicago, Ill.).

H6NA3 = target: T3, H6NA3 (Homo sapiens, UniProt P06731); test: Fluorescence anisotropy direct binding to H6NA3 / NA3; conditions: from KD of Table 7 versus Table 3
T3 construct: H6NA3, consisting of a hexahistidine leader and the N and A3 domains of CEA, was used
T3 sequence (P06731 35-144 limits assumed): T1 sequence (P06731 35-144 limits assumed)
T3 sequence (P06731 501-588 limits assumed): T1 sequence (P06731 501-588 limits assumed)
Method: (§1) Each peptide was also provided with a C-terminal amide-functional linker useful for immobilizing peptides to various chromatographic substrates: -Ala18-Pro19-Gly20-Gly-Glu-Gly-Gly-Gly-Ser-Lys-CONH2 (SEQ ID NO:28). […] Aliquots of each peptide were fluorescently labeled using NHS-fluorescein reacted with the ε-amino side group of the C-terminal lysine.
Dissociation constants were determined using fluorescence anisotropy, through direct binding measurements and competition experiments. In direct binding assays, the concentration of the fluorescein-labeled peptide is held constant and the concentration of H6NA3 is varied. In the competition experiment, the concentration of the fluorescein-labeled peptide and the H6NA3 target are held constant and the concentration of a competitor (cT84.66, unlabeled) is varied. The change in anisotropy is fit to the appropriate equation via nonlinear regression to obtain the apparent Kd.
Aliquots of each peptide were fluorescently labeled using NHS-fluorescein reacted with the ε-amino side group of the C-terminal lysine.
Dissociation constants were determined using fluorescence anisotropy, through direct binding measurements (see Example 6).
as §1, with “Peptides including the binding domain of the CEA binder Isolates were synthesized by solid-phase synthesis. Each” for “Each”
Dissociation constants were determined using fluorescence anisotropy, through direct binding measurements to either NA-3 or CEA in PBS with 0.01% TWEEN 20. […] Isolate 304A-12-H12, previously isolated from Lib2 and assayed for binding, was analyzed in parallel as a control. […] KD standard error values are calculated from the nonlinear regression (SIGMAPLOT, SPSS Science, Chicago, Ill.).

CEA [2] = target: T2, CEA; test: Later evaluation of CEA binding, method not given

phage ELISA binding profile to varying amounts of NA3 (NA3) | increase in affinity compared to the Isolate G08 peptide (H6NA3) | binding to CEA with useful affinity (CEA [2]) | Molecule | binding to CEA (in words) (CEA [1])
do not drop off so quickly | 8 fold |  | CC(C)C[C@H](NC(=O)[C@@H](NC(=O)[C@H](CC(N)=O)NC(=O)[C@@H]1CSSC[C@H](NC(=O)[C@@H](NC(=O)[C@H](Cc2c[nH]c3ccccc23)NC(=O)[C@H](CC(=O)O)NC(=O)[C@@H](N)CO)C(C)C)C(=O)N[C@@H](CCC(=O)O)C(=O)N[C@@H](Cc2ccc(O)cc2)C(=O)N[C@@H](Cc2ccccc2)C(=O)N[C@@H](CCCCN)C(=O)N[C@@H](CC(N)=O)C(=O)N[C@@H](CCC(N)=O)C(=O)N[C@@H](Cc2c[nH]c3ccccc23)C(=O)N[C@@H](Cc2ccccc2)C(=O)N1)C(C)C)C(=O)N[C@@H](C)C(=O)N1CCC[C@H]1C(=O)NCC(=O)NCC(=O)N[C@@H](CCC(=O)O)C(=O)NCC(=O)NCC(=O)NCC(=O)N[C@@H](CO)C(=O)N[C@@H](CCCCNC(=O)c1ccc2c(c1)C(=O)OC21c2ccc(O)cc2Oc2cc(O)ccc21)C(N)=O [Isolate 304A-12-H12, DWVCEYFKNQWFCNVL] | effectively bound CEA, but not as strongly as they bound NA3
 |  | not to bind CEA with useful affinity | -RYCEFFPWSLHCGRP (Isolate of TN10/9 library found not to bind CEA) [Isolate B10] | 
 |  | not to bind CEA with useful affinity | NWRCKLFPRYPYCSSW (Isolate of TN10/9 library found not to bind CEA) [Isolate G01] | 
